pIC50, pKi: −log10 of the molar value. Several values for one entry are separate records, joined by “and”; a condition that tells them apart may be missing. Equal entries are not always repeated.
Target: T1, C5a receptor (Homo sapiens, UniProt P21730)
T1 sequence (P21730 1-350): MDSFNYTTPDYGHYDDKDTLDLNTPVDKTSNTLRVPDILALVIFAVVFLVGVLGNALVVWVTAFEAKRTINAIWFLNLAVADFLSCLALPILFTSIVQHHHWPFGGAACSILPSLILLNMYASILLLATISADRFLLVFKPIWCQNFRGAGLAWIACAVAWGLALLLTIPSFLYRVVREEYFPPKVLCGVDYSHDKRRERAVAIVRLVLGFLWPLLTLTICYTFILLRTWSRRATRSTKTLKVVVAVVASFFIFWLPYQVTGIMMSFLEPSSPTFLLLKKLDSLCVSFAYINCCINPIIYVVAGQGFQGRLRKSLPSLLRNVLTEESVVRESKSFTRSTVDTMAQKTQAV
Experiment: [125I]-C5a Radioligand Binding Assay (competition binding, differentiated U937 cells);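 also: cells preincubated with compound 30 min at room temperature, then 60 min at 4 °C with radioligand, bound counts read by scintillation, nonspecific binding defined with 100 nM C5a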
Settings: read-out: [125I]-C5a Binding % Inhibition 1 μM, test compound 1 μM; [125I]-C5a 0.05 nM; U937 cells; multiple values = duplicate experiments

| SMILES | inhibition at 1 µM [%] |
| --- | --- |
| CCc1cccc(CC)c1-c1cc(OC)c2c(n1)CCCC2Nc1c(C)ccc2ccccc12 (stereo not drawn) [Compound 119] | 64 |
| CCc1cccc(CC)c1-c1cc(OC)c2c(n1)CCCC2Nc1cccc2c1CCC2 (stereo not drawn) [Compound 121] | 59 |
| CCc1cccc(CC)c1-c1cc(OC)c2c(n1)CCCC2N(C)Cc1ccccc1 (stereo not drawn) [Compound 123] | 3 |
| CCc1cccc(CC)c1-c1cc(OC)c2c(n1)CCCC2N(C)C1CCCCC1 (stereo not drawn) [Compound 124] | 2 |
| CCc1cccc(CC)c1-c1cc(OC)c2c(n1)CCCC2N(C)Cc1cccnc1 (stereo not drawn) [Compound 125] | -11 |
| CCc1cccc(CC)c1-c1cc(OC)c2c(n1)CCCC2N1CCCC1 (stereo not drawn) [Compound 126] | -11 |
| CCc1cccc(CC)c1-c1cc(OC)c2c(n1)CCCC2N1CCc2cc(C(=O)O)ccc2C1 (stereo not drawn) [Compound 128] | -25 |
| CCc1cccc(CC)c1-c1cc(OC)c2c(n1)CCCC2N1CCc2c(cccc2C(=O)O)C1 (stereo not drawn) [Compound 129] | -46 |
| CCc1cccc(CC)c1-c1cc(OC)c2c(n1)CCCC2N1CCc2cccc(C(=O)O)c2C1 (stereo not drawn) [Compound 130] | -24 |
| CCc1cccc(CC)c1-c1cc(OC)c2c(n1)CCCC2N1CCc2ccc(C(=O)O)cc2C1 (stereo not drawn) [Compound 131] | -26 |
| CCc1cccc(CC)c1-c1cc(OC)c2c(n1)CCCC2N(CC)c1ncnc2ccccc12 (stereo not drawn) [Compound 135] | 16 |

Same assay, conditions: read-out: [125I]-C5a Binding % Inhibition 10 μM, test compound 10 μM; [125I]-C5a 0.05 nM; U937 cells; multiple values = duplicate experiments

| SMILES | inhibition at 10 µM [%] |
| --- | --- |
| CCc1cccc(CC)c1-c1cc(OC)c2c(n1)CCCC2N1CCc2ccccc2C1 (stereo not drawn) [Compound 31] | 87 |
| CCc1cccc(CC)c1-c1cc(Cl)c2c(n1)CCCC2N(CC)c1cccc2ccccc12 (stereo not drawn) [Compound 60] | 83 |
| CCN(c1cccc2ccccc12)C1CCCc2nc(-c3ccccc3F)cc(OC)c21 (stereo not drawn) [Compound 73] | 80 |
| CCc1cccc(CC)c1-c1cc(OC)c2c(n1)CCCC2Nc1c(C)ccc2ccccc12 (stereo not drawn) [Compound 119] | 74 |
| CCc1cccc(CC)c1-c1cc(OC)c2c(n1)CCCC2Nc1cccc2c1CCC2 (stereo not drawn) [Compound 121] | 75 |
| CCc1cccc(CC)c1-c1cc(OC)c2c(n1)CCCC2N(C)Cc1ccccc1 (stereo not drawn) [Compound 123] | 39 |
| CCc1cccc(CC)c1-c1cc(OC)c2c(n1)CCCC2N(C)C1CCCCC1 (stereo not drawn) [Compound 124] | 33 |
| CCc1cccc(CC)c1-c1cc(OC)c2c(n1)CCCC2N(C)Cc1cccnc1 (stereo not drawn) [Compound 125] | 45 |
| CCc1cccc(CC)c1-c1cc(OC)c2c(n1)CCCC2N1CCCC1 (stereo not drawn) [Compound 126] | 18 |
| CCc1cccc(CC)c1-c1cc(OC)c2c(n1)CCCC2N1CCc2cc(C(=O)O)ccc2C1 (stereo not drawn) [Compound 128] | -9 |
| CCc1cccc(CC)c1-c1cc(OC)c2c(n1)CCCC2N1CCc2c(cccc2C(=O)O)C1 (stereo not drawn) [Compound 129] | -20 |
| CCc1cccc(CC)c1-c1cc(OC)c2c(n1)CCCC2N1CCc2cccc(C(=O)O)c2C1 (stereo not drawn) [Compound 130] | -13 |
| CCc1cccc(CC)c1-c1cc(OC)c2c(n1)CCCC2N1CCc2ccc(C(=O)O)cc2C1 (stereo not drawn) [Compound 131] | -9 |
| CCc1cccc(CC)c1-c1cc(OC)c2c(n1)CCCC2N(CC)c1ncnc2ccccc12 (stereo not drawn) [Compound 135] | 47 |

Same assay, conditions: test compound 1 μM; [125I]-C5a 0.05 nM; U937 cells; multiple values = duplicate experiments

| SMILES | [125I]-C5a Binding % Inhibition 1 μM |
| --- | --- |
| CCc1cccc(CC)c1-c1cc(OC)c2c(n1)CCCC2N1CCc2ccccc2C1 (stereo not drawn) [Compound 31] | 77% and 94% and 96% and 69% |
| CCc1cccc(CC)c1-c1cc(OC)c2c(n1)CCC[C@@H]2N(C)[C@@H]1CCCc2ccccc21 [Compound 59] | 91% |
| CCN(c1cccc2ccccc12)C1CCCc2nc(-c3ccccc3F)cc(OC)c21 (stereo not drawn) [Compound 73] | 55% and 34% |
| CCc1cccc(CC)c1-c1cc(OC)c2c(n1)CCCC2N(C)CCc1ccccc1 (stereo not drawn) [Compound 87] | 17% |
| CCc1cccc(CC)c1-c1cc(OC)c2c(n1)CCCC2N(C)CCCc1ccccc1 (stereo not drawn) [Compound 91] | 20% |
| COc1cc(-c2c(C)cccc2C)nc2c1C(N(C)c1cccc3[nH]ccc13)CCC2 (stereo not drawn) [Compound 113] | 33% |
| COc1cccc(N(C)C2CCCc3nc(-c4c(C)cccc4C)cc(OC)c32)c1C (stereo not drawn) [Compound 117] | 86% |

Same assay, conditions: test compound 10 μM; [125I]-C5a 0.05 nM; U937 cells; multiple values = duplicate experiments

| SMILES | [125I]-C5a Binding % Inhibition 10 μM |
| --- | --- |
| CCc1cccc(CC)c1-c1cc(OC)c2c(n1)CCCC2N1CCc2ccccc2C1 (stereo not drawn) [Compound 31] | 101% and 100% and 83% |
| CCc1cccc(CC)c1-c1cc(OC)c2c(n1)CCC[C@@H]2N(C)[C@@H]1CCCc2ccccc21 [Compound 59] | 89% |
| CCc1cccc(CC)c1-c1cc(Cl)c2c(n1)CCCC2N(CC)c1cccc2ccccc12 (stereo not drawn) [Compound 60] | 85% |
| CCN(c1cccc2ccccc12)C1CCCc2nc(-c3ccccc3F)cc(OC)c21 (stereo not drawn) [Compound 73] | 70% |
| CCc1cccc(CC)c1-c1cc(OC)c2c(n1)CCCC2N(C)CCc1ccccc1 (stereo not drawn) [Compound 87] | 51% |
| CCc1cccc(CC)c1-c1cc(OC)c2c(n1)CCCC2N(C)CCCc1ccccc1 (stereo not drawn) [Compound 91] | 60% |
| COc1cc(-c2c(C)cccc2C)nc2c1C(N(C)c1cccc3[nH]ccc13)CCC2 (stereo not drawn) [Compound 113] | 54% |
| COc1cccc(N(C)C2CCCc3nc(-c4c(C)cccc4C)cc(OC)c32)c1C (stereo not drawn) [Compound 117] | 85% |

Target: T1, C5a receptor
Experiment: Calcium Mobilization Assay (C5a-induced Ca2+ mobilization, FLIPR, differentiated U937 cells)
Format: cell-based
Design: endogenous in cells; host or cells: U937 cells differentiated with dibutyryl cAMP
Settings: […] recombinant human C5a, 20 min pre-incubation, multiple values = duplicate experiments, read-out: C5a Induced Ca Mobil. Average IC50
Protocol: U937 cells (human monocytic cell line) were cultured in RPMI-1640 medium supplemented with 10% fetal bovine serum, 10 mM HEPES, 0.11 g/L pyruvate, 0.29 g/L L-glutamine, 100 IU/mL penicillin G and […] streptomycin. Dibutyryl cAMP (1 mM) was added to induce differentiation 2 or 3 days prior to loading the cells with 4.4 μM Fluo-3AM (Molecular Probes) for 30 min at 37° C. in RPMI medium containing 20 mM HEPES, 0.1% bovine serum albumin (BSA) and 5 mM probenecid. After washing, cells were dissolved at 2×10^6 cells/ml in HBSS buffer (Invitrogen 14190-094) supplemented with 10 mM HEPES, 2.5 mM probenecid and 0.1% BSA (pH=7.4), and sedimented by 1 min centrifugation (1500 rpm) in black 96-well plates (Costar) (200,000 cells/well). A 100× concentration range of test compounds was prepared in DMSO and further diluted in HBSS buffer. U937 cells were pre-incubated with compound for 20 minutes at room temperature (1% DMSO), before recombinant human C5a (Sigma) was added to the cells (1.5 nM). Changes in intracellular free Ca^2+ concentration were measured using the Fluorescent Imaging Plate Reader (FLIPR, Molecular Devices). Fluorescence was recorded every second from 10 seconds before the addition of C5a until 2 min after the addition. The maximal fluorescence obtained during this time frame was used for further calculations.

| SMILES | pIC50 |
| --- | --- |
| CCc1cccc(CC)c1-c1cc(OC)c2c(n1)CCC[C@@H]2N(C)[C@@H]1CCCc2ccccc21 [Compound 59] | 5.72 |
| CCc1cccc(CC)c1-c1cc(Cl)c2c(n1)CCCC2N(CC)c1cccc2ccccc12 (stereo not drawn) [Compound 60] | 5.71 |
| CCN(c1cccc2ccccc12)C1CCCc2nc(-c3ccccc3F)cc(OC)c21 (stereo not drawn) [Compound 73] | 5.34 |
| CCc1cccc(CC)c1-c1cc(OC)c2c(n1)CCCC2N(C)CCc1ccccc1 (stereo not drawn) [Compound 87] | < 5.00 |
| CCc1cccc(CC)c1-c1cc(OC)c2c(n1)CCCC2N(C)CCCc1ccccc1 (stereo not drawn) [Compound 91] | < 5.00 |
| COc1cc(-c2c(C)cccc2C)nc2c1C(N(C)c1cccc3[nH]ccc13)CCC2 (stereo not drawn) [Compound 113] | < 5.00 |
| COc1cccc(N(C)C2CCCc3nc(-c4c(C)cccc4C)cc(OC)c32)c1C (stereo not drawn) [Compound 117] | < 5.00 |
| CCc1cccc(CC)c1-c1cc(OC)c2c(n1)CCCC2Nc1c(C)ccc2ccccc12 (stereo not drawn) [Compound 119] | < 5.00 |
| CCc1cccc(CC)c1-c1cc(OC)c2c(n1)CCCC2Nc1cccc2c1CCC2 (stereo not drawn) [Compound 121] | < 5.00 |
| CCc1cccc(CC)c1-c1cc(OC)c2c(n1)CCCC2N(C)Cc1ccccc1 (stereo not drawn) [Compound 123] | < 5.00 |
| CCc1cccc(CC)c1-c1cc(OC)c2c(n1)CCCC2N(C)C1CCCCC1 (stereo not drawn) [Compound 124] | < 5.00 |
| CCc1cccc(CC)c1-c1cc(OC)c2c(n1)CCCC2N(C)Cc1cccnc1 (stereo not drawn) [Compound 125] | < 5.00 |
| CCc1cccc(CC)c1-c1cc(OC)c2c(n1)CCCC2N1CCCC1 (stereo not drawn) [Compound 126] | < 5.00 |
| CCc1cccc(CC)c1-c1cc(OC)c2c(n1)CCCC2N1CCc2cc(C(=O)O)ccc2C1 (stereo not drawn) [Compound 128] | < 5.00 |
| CCc1cccc(CC)c1-c1cc(OC)c2c(n1)CCCC2N1CCc2c(cccc2C(=O)O)C1 (stereo not drawn) [Compound 129] | < 5.00 |
| CCc1cccc(CC)c1-c1cc(OC)c2c(n1)CCCC2N1CCc2cccc(C(=O)O)c2C1 (stereo not drawn) [Compound 130] | < 5.00 |
| CCc1cccc(CC)c1-c1cc(OC)c2c(n1)CCCC2N1CCc2ccc(C(=O)O)cc2C1 (stereo not drawn) [Compound 131] | < 5.00 |
| CCc1cccc(CC)c1-c1cc(OC)c2c(n1)CCCC2N(CC)c1ncnc2ccccc12 (stereo not drawn) [Compound 135] | < 5.00 |

Target: T1, C5a receptor
Experiment: not given
Settings: not given

| SMILES | pKi |
| --- | --- |
| CCc1cccc(CC)c1-c1cc(OC)c2c(n1)CCCC2N1CCc2ccccc2C1 (stereo not drawn) [Compound 31] | 7.46 |
| CCc1cccc(CC)c1-c1cc(OC)c2c(n1)CCC[C@@H]2N(C)[C@@H]1CCCc2ccccc21 [Compound 59] | 7.24 |
| CCc1cccc(CC)c1-c1cc(Cl)c2c(n1)CCCC2N(CC)c1cccc2ccccc12 (stereo not drawn) [Compound 60] | 6.75 |
| CCN(c1cccc2ccccc12)C1CCCc2nc(-c3ccccc3F)cc(OC)c21 (stereo not drawn) [Compound 73] | 5.43 |
| CCN(c1cccc2ccccc12)C1CCCc2nc(-c3ccccc3)cc(OC)c21 (stereo not drawn) [Compound 133] | 5.08 |

From patent US20090048295A1, “SUBSTITUTED 5,6,7,8-TETRAHYDROQUINOLINE DERIVATIVES, COMPOSITIONS, AND METHODS OF USE THEREOF” (priority 2007, published 2009)
